# Measured values from patent publication US20020198254A1, “Polyamide analogs” (priority 2000, published 2002).
# Read-outs that look alike come from different tables or passages of the source.
# Key:
# Assay type in all cases: cell-based
# [1] = system: VRE-UCD3 (vancomycin resistant enterococci); test: MIC assay, VRE strain UCD-3; conditions: 25 μg/mL Vancomycin - 24 h; for MIC: Enterococcus, VRE, read-out: MIC Assay VRE Strains: UCD-3 van25
# Protocol: (§1) These assays are adapted from NCCLS protocols M7-A4 and M27-A (NCCLS vol 17:9 and vol 17:2) as modified by Sandven, S. Clin. Micro. (1999) 37:12, p.3856-3859. MIC values for Aspergillus fumigatus were determined using NCCLS protocol M38-P.
# (§2) All compounds were dissolved in 100% DMSO to a stock concentration of 10 mM and use fresh or stored at −80° C. Stock compounds were kept frozen until needed and used freshly with no more then one freeze-thaw cycle. When used for test purposes, compounds were diluted in the appropriate media depending on the organism being tested.
# (§3) For yeast and aspergillus species, seven 1:2 serial dilutions of compound in appropriate media buffered with MOPS at pH 7.0 were prepared such that the final starting test compound concentrations were 50.0 uM for yeast and 50 uM aspergillus species. For bacteria, dilutions were made in growth media used for the particular bacteria being tested.
# (§4) Inoculums are made in the same manner as yeast except all dilutions are made in normal saline, with a final dilution of 1:200 and an inoculum of 10 μL. VRE are vancomycin resistant enterococci, BM4147 and UCD-3 represent two different sources of VRE. MRSA are […] resistant Staphylococcus Aureus.
# Candida albicans = test: MIC assay, yeast C. albicans; conditions: RPMI, 48 h, Alamar Blue; for MIC: Candida albicans
# Bacillus cereus = test: MIC assay, B. cereus; conditions: CAMHB, 16 h; for MIC: Bacillus cereus, read-out: MIC Assay Other Strains: B. cereus
# Protocol: as §1, §2, §3, §4
# Staphylococcus aureus = test: MIC assay, S. aureus; conditions: CAMHB, 16 h
# Protocol: as §1, §2, §3, §4
# Pseudomonas aeruginosa = test: MIC assay, P. aeruginosa; conditions: CAMHB, 16 h
# Protocol: as §1, §2, §3, §4
# [2] = system: VRE-BM4147 (vancomycin resistant enterococci); test: MIC assay, VRE strain BM4147; conditions: 25 μg/mL Vancomycin - 24 h; for MIC: Enterococcus, VRE, read-out: MIC Assay VRE Strains: BM4147 van25
# Protocol: as §1, §2, §3, §4
# WST-CEM T-cell line = test: Toxicity screen on WST-CEM T-cell line
# Protocol: Toxicity screen was done on a WST-CEM T-cell line and the minimum percent verses a no drug control was measured.
# E coli = test: MIC assay, E coli
# Protocol: as §1, §2, §3, §4
# Aspergillus fumigatus = test: MIC assay, filamentous fungi A. fumigatus; conditions: 48 h at 35C, no visible growth; for MIC: Aspergillus fumigatus
# [3] = system: MRSA (methylacillin resistant Staphylococcus Aureus); test: MIC assay, MRSA; conditions: for MIC: Staphylococcus aureus, MRSA
# Protocol: as §1, §2, §3, §4
# [4] = WST-CEM T-cell line, ND = no drug control
Compound,MIC Assay VRE Strains: UCD-3 van25 [1] [µM],MIC Assay C. Albicans (Candida albicans) [µM],MIC Assay Other Strains: B. cereus (Bacillus cereus) [µM],MIC Assay Other Strains: S. aureus (Staphylococcus aureus) [µM],MIC Assay Other Strains: P. aeruginosa (Pseudomonas aeruginosa) [µM],MIC Assay VRE Strains: BM4147 van25 [2] [µM],MIC [1] [µM],"CEM: toxicity screen, minimum percent verses a no drug control (WST-CEM T-cell line; [4]) [% ND]",MIC (Candida albicans) [µM],MIC (Bacillus cereus) [µM],MIC (E coli) [µM],MIC (Aspergillus fumigatus) [µM],MIC [3] [µM],MIC [2] [µM],"CEM: toxicity screen, minimum percent verses a no drug control (WST-CEM T-cell line) [% ND]",MIC Assay E coli (E coli) [µM],MIC Assay A fumigatus (Aspergillus fumigatus) [µM],MIC Assay MRSA [3] [µM]
"1,5-bis-{4-[(NH2(CH2)2CONH)-1-methyl-1H-pyrrol-2-yl-carbonylamino]-benzimidazole [Compound 77]",>45.5,>44.4,22.7,45.5,>45.5,>45.5,,,,,,,,,,,,
"1,5-bis-{4-[(NH2(CH2)3CONH)-1-methyl-1H-pyrrol-2-yl-carbonylamino]-benzimidazole [Compound 78]",>45.5,,22.7,45.5,>45.5,>45.5,,,,,,,,,,,,
"1,5-bis-{4-[(NH2CH2CONH)-1-methyl-1H-pyrrol-2-yl-carbonylamino]-benzimidazole [Compound 76]",>45.5,>44.4,>45.5,>45.5,>45.5,>45.5,,,,,,,,,,,,
Cn1cc(NC(=O)CNC(=N)N)cc1C(=O)Nc1ccc2[nH]c(NC(=O)c3cc(NC(=O)CNC(=N)N)cn3C)nc2c1 [Compound 79],11.4,,11.4,>45.5,>45.5,45.5,,,,,,,,,,,,
Cn1cc(NC(=O)CCNC(=N)N)cc1C(=O)Nc1ccc2[nH]c(NC(=O)c3cc(NC(=O)CCNC(=N)N)cn3C)nc2c1 [Compound 80],>45.5,>44.4,5.7,>45.5,>45.5,>45.5,,,,,,,,,,,,
Cn1cc(NC(=O)CCCNC(=N)N)cc1C(=O)Nc1ccc2[nH]c(NC(=O)c3cc(NC(=O)CCCNC(=N)N)cn3C)nc2c1 [Compound 81],>45.5,22.2,5.7,45.5,>45.5,>45.5,,,,,,,,,,,,
"NCC(=O)Nc1cc(C(=O)NCCNC(=O)c2cc(NC(=O)CN)cn2CC2CC2)n(CC2CC2)c1 [Compound 169, Bis-1,2-[4-(2-amino-acetylamino)-1-cyclopropylmethyl-1H-pyrrol-2-yl-carbonylamino]-ethane]",,,,,,,> 45.5,100,> 44.4,> 45.5,45.5,> 50,> 45.5,> 45.5,,,,
"CC(C)C(N)C(=O)Nc1cc(C(=O)NCCNC(=O)c2cc(NC(=O)C(N)C(C)C)cn2CC2CC2)n(CC2CC2)c1 (stereo not drawn) [Compound 170, Bis-1,2-[4-(2-amino-3-methyl-butyrylamino)-1-cyclopropylmethyl-1H-pyrrol-2-yl-carbonylamino]-ethane]",>45.5,>44.4,,,,>45.5,,,,,,,,,90.0,>45.5,>50,>45.5
"O=C(NC1CCC(NC(=O)c2cc(NC(=O)C3CCCN3)cn2CC2CC2)CC1)c1cc(NC(=O)C2CCCN2)cn1CC1CC1 (stereo not drawn) [Compound 171, Bis-trans-1,4-[4-(pyrrolidine-2-carbonyl-amino)-1-cyclopropylmethyl-1H-pyrrol-2-yl-carbonylamino]cyclohexane]",,,,,,,> 45.5,91.1,> 44.4,,> 45.5,> 50,> 45.5,> 45.5,,,,
"NCCCC(N)C(=O)N1CCCC1C(=O)Nc1cc(C(=O)NC2CCC(NC(=O)c3cc(NC(=O)C4CCCN4C(=O)C(N)CCCN)cn3CC3CC3)CC2)n(CC2CC2)c1 (stereo not drawn) [Compound 172, Bis-trans-1,4-{[4-(2,5-diamino-pentanoyl)pyrrolidine-2-carbonyl-amino]-1-cyclopropylmethyl-1H-pyrrol-2-yl-carbonylamino}cyclohexane]",>45.5,>44.4,,,,>45.5,,,,,,,,,25.5,>45.5,>50,>45.5
"NC(Cc1c[nH]cn1)C(=O)Nc1cc(C(=O)NC2CCC(NC(=O)c3cc(NC(=O)C(N)Cc4c[nH]cn4)cn3CC3CC3)CC2)n(CC2CC2)c1 (stereo not drawn) [Compound 173, Bis-trans-1,4-{4-[2-amino-3-(1H-imidazol-4-yl)propyonylamino]-1-cyclopropylmethyl-1H-pyrrol-2-yl-carbonylamino]cyclohexane]",>45.5,>44.4,,,,>45.5,,,,,,,,,87.2,>45.5,>50,>45.5
N=C(N)NCC(=O)Nc1cc(C(=O)NCCNC(=O)c2cc(NC(=O)CNC(=N)N)cn2CC2CC2)n(CC2CC2)c1 [Compound 174],,,,,,,> 45.5,92.9,> 44.4,,> 45.5,> 50,> 45.5,> 45.5,,,,
CC(C)CCn1cc(NC(=O)CN)cc1C(=O)Nc1ccc(NC(=O)c2cc(NC(=O)CN)cn2CCC(C)C)cc1 [Compound 188a],11.4,>44.4,22.7,,,11.4,,6.9,,,,,,,,22.7,>50,11.4
CC(C)CCn1cc(NC(=O)CN)cc1C(=O)Nc1ccc2ccc(NC(=O)c3cc(NC(=O)CN)cn3CCC(C)C)cc2c1 [Compound 188b],,22.2,22.7,,,,,9.2,,,,,,,,22.7,>50,
CC(C)CCn1cc(NC(=O)CNC(=N)N)cc1C(=O)Nc1ccc(NC(=O)c2cc(NC(=O)CNC(=N)N)cn2CCC(C)C)cc1 [Compound 189a],,,,,,,11.4,7.7,22.2,2.8,11.4,12.5,,11.4,,,,
CC(C)CCn1cc(NC(=O)CNC(=N)N)cc1C(=O)Nc1ccc2ccc(NC(=O)c3cc(NC(=O)CNC(=N)N)cn3CCC(C)C)cc2c1 [Compound 189b],,,,,,,5.7,10.2,,2.8,45.5,3.1,,,,,,
CC/N=C(/NCCN(C)C)Nc1cc(C(=O)Nc2ccc(NC(=O)c3cc(N/C(=N/CC)NCCN(C)C)cn3CCC(C)C)cc2)n(CCC(C)C)c1 [Compound 191],,,,,,,11.4,3.7,11.1,5.7,22.7,12.5,,,,,,
